This is an account of results in US10156521B2, “Red fluorescent aldehyde dehydrogenase (ALDH) substrate” (THE JOHNS HOPKINS UNIVERSITY, priority 2013, dated 2018).

A short description of this data set: Excitation and emission profiles by spectrofluorophotometer. It counts as physicochemical. To be noted: 100% ethanol. The procedure:
FIGS. 2a-2c show the excitation and emission profiles of candidate ALDH substrates. (a) AldeRed 493 aldehyde diethyl acetal, (b) AldeRed 588 aldehyde diethyl acetal, (c) AldeRed 659 aldehyde diethyl acetal. All the compounds were dissolved in 100% ethanol and both excitation and emission profiles were measured in 100% ethanol. The emission spectrum was measured with excitation at 493 nm for AldeRed 493 aldehyde diethyl acetal, at 560 nm for AldeRed 588, and at 650 nm for AldeRed 659-A. Blue line: excitation spectrum; red line: emission spectrum;
Reagents and Analyses. BODIPY® 576/589 succinimidyl ester and BODIPY® 650/665 succinimidyl ester were purchased from Life Technologies Inc., (Grand Island, N.Y.). (E)-4-(4-(dimethylamino)styryl)-1-(3-isothiocyanatopropyl)pyridin-1-ium chloride 1 was synthesized analogously to the previously reported di-butyl analog. Hassner, A., et al., J Org. Chem. 49, 2546-2551 (1984). Chemicals and solvents for synthesis and high-performance liquid chromatography (HPLC) were acquired from Sigma-Aldrich (Milwaukee, Wis.) or Fisher Scientific (Pittsburgh, Pa.), and used without further purification. HPLC was performed on an Agilent Prostar System equipped with a 325 Variable wavelength detector and controlled by Galaxie Software using a Phenomenex 4.6×250 mm Luna C18, 10 micron column. AldeRed 493 aldehyde diethyl acetal (FIGS. 14a-14b) and AldeRed 493-A (FIGS. 14c-14d) were chromatographed using Method 1. AldeRed 588 aldehyde diethyl acetal (FIGS. 15a-15b), AldeRed 588-A (FIGS. 15c-15d), AldeRed 659 aldehyde diethyl acetal (FIGS. 16a-16b), AldeRed 659-A (FIGS. 16c-16d) were chromatographed using Method 2. Method 1: Solvent A: 100% water; Solvent B: 100% methanol; 0-5 min 100% A, 5-25 min linear gradient from 100% A to 100% B, 25-30 min 100% B, 30-35 min linear gradient from 100% B to 100% A, 35-38 min 100% A, 2 mL/min. Method 2: Solvent A: 100% water; Solvent B: 100% acetonitrile; 0-20 min linear gradient from 90% A/10% B to 10% A/90% B; 20-25 min 10% A/90% B, 25-30 min linear gradient from 10% A/90% B to 90% A/10% B, 2 mL/min. ^1H-NMR spectra were obtained on a Bruker Avance 400 MHz Spectrometer. High resolution mass spectra were obtained by the University of Notre Dame Mass Spectrometry & Proteomics Facility (Notre Dame, Ind.) using ESI either by direct infusion on a Bruker micrOTOF-II or by LC elution via an ultra-high pressure Dionex® RSLC with C18 column coupled with a Bruker micrOTOF-Q II. The excitation and emission profiles of synthesized products were measured using a spectrofluorophotometer (Shimadzu, RF-5301pc, Columbia, Md.).
Three representative substrates of ALDH containing fluorophores that emit in the red region of the spectrum were synthesized (FIG. 1). […]

`CCOC(CNC(=S)NCCC[n+]1ccc(C=Cc2ccc(N(C)C)cc2)cc1)OCC.[Cl-]` [compound 4] had a Maximum emission wavelength of 590 nm and a Maximum excitation wavelength of 493 nm.

`CCOC(CNC(=O)CCc1ccc2n1[B-](F)(F)[N+]1=C(c3ccc[nH]3)C=CC1=C2)OCC` [compound 5] came in with a Maximum emission wavelength of 599 nm and a Maximum excitation wavelength of 588 nm.
